Reference: patent US7994202B2, “Bicyclic nitrogen-containing heterocyclic compounds” (Asahi Kasei Pharma Corporation, priority 2008, dated 2011)
pIC50, pKi: −log10 of the molar value.

Assays:
human EP1 receptor [1] = target: T1, human EP1 receptor (Homo sapiens, UniProt P34995); experiment: Antagonist activity using cells expressing human EP1 receptor (SRE-luciferase reporter activity, PGE2 10 nM); type: cell-based; conditions: HEK293 cells stably expressing human EP1 receptor, 6 hours, read-out: IC50 value in the measurement of antagonist activity using human EP1 receptor expressing cells
T1 construct: expressed in transfected cells
T1 sequence (P34995 1-402): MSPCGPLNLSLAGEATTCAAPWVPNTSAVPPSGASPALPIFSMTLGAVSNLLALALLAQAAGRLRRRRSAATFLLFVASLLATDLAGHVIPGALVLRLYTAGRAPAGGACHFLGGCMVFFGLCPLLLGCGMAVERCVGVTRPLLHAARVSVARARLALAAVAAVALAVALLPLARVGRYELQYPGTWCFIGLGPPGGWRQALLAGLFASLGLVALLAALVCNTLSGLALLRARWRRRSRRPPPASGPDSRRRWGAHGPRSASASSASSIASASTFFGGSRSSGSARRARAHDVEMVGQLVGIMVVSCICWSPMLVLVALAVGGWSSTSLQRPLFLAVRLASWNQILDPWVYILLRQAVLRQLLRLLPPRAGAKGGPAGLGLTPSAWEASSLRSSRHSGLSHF
Description: (§1) Measurement of an Antagonist Activity by Using Cells Expressing Human EP1 Receptor
As a result of searching Refseq Database for prostaglandin E receptor, genetic information of human EP1 (NM_000955) receptor was obtained. Based on this sequence information, human EP1 receptor gene was cloned by PCR using human cDNA as a template and by an ordinary method to give human EP1 receptor. Then, HEK293 in which the receptor is stably expressed was established, together with a reporter gene (SRE-Luciferase) in which serum responsible element (SRE) is added at the upstream region of firefly luciferase gene. The resulting cells were seeded to a 96 well plate (5×10^4 cells/well) and cultured for one day. To the plate, PGE2 (200 nM, final concentration 10 nM) and the test compound (in an amount of 1/20, 20× of the final concentration) were added to initiate the reaction. After allowing the reaction to proceed at 37° C. for 6 hours, the medium was aspirated off, added with a luminescent agent and the reporter activity was measured. […]

human EP1 receptor [2] = target: T1, human EP1 receptor; experiment: Antagonist activity using cells expressing human EP1 receptor (intracellular Ca2+ assay, Fura 2-AM); type: cell-based; conditions: HEK293 cells stably expressing human EP1 receptor, PGE2 10 nM
Description: as §1
Cells expressing human EP1 receptor were suspended in an assay buffer to the concentration of 5×10^6 cells/ml, added with Puronic F-127 (final concentration 0.2%), and Fura 2-AM (final concentration 5 uM), followed by incubation at 37° C. for 30 minutes. After washing twice with the assay buffer, the cells were again suspended in the assay buffer to 1×10^6 cells/60 ul, and then transferred to a 96 well UV plate (1×10^6 cells/60 ul/well). Thereafter, by using a fluorescent chemical screening system (FDSS4000, Hamamatsu Photonics K.K.), intracellular Ca^2+ concentration was measured after adding 20 ul of each of the test compounds and PGE2 (5× of the final concentration for both). Ca^2+ concentration was measured by determining fluorescence intensity after irradiation with two excitation wavelengths, i.e., 340 and 380 nm.
Furthermore, EP1 antagonist activity was calculated as a ratio (%) of inhibiting increase in intracellular Ca^2+ concentration by PGE2 (10 nM).
Assay buffer: 20 mM HEPES/KOH (pH 7.4), 115 mM NaCl, 5.4 mM KCl, 0.8 mM MgCl2, 0.8 mM CaCl2, 13.8 mM D-glucose, 0.1% BSA

SD rats = experiment: Action of extending interval of micturition in rat in wakefulness II (0.3% acetic acid-induced cystitis); type: in vivo; conditions: male SD rats in wakefulness, 0.3% acetic acid cystitis, intravenous
Description: SD rats (Charles River Laboratories Japan, Inc., male) were employed as experimental animals. Each rat was put under anesthesia by inhalation of 2% isoflurane (laughing gas:oxygen=7:3), and then was fixed in the supine position. Anesthesia was maintained by the inhalation of 2% isoflurane. The abdominal part was incised along the midline, and the urinary bladder was exposed from the intraperitoneal cavity. The vertex vesicae part was subjected to a small incision, and a polyethylene tube (PE-50: Becton Dickinson and Company) was inserted into the bladder and fixed. […] Thereafter, while physiological saline warmed to 37° C. was injected to the other end of the tube inserted into the bladder through one branch of a three-way stopcock at a rate of 3.0 mL/hr, the internal pressure of the bladder was continuously recorded from another branch using a pressure amplifier through a pressure transducer. The excreted urine was cumulatively accumulated in a vessel on a digital balance, and the weight change was simultaneously measured. […] The value obtained before the administration was taken from an average value of the values measured for 30 minutes before the administration, and the value obtained after the administration was taken from an average value of the values measured for 60 minutes immediately after the administration. […]

human EP1 receptor [3] = target: T1, human EP1 receptor; experiment: Receptor binding test using cells expressing human EP1 receptor ([3H]PGE2 binding inhibition, membrane fraction); conditions: membrane fraction of HEK293 cells expressing human EP1 receptor, [3H]PGE2 1 nM; read-out: Ki value in the measurement of [3H]PGE2 binding inhibitory activity
Description: Receptor Binding Test Using Cells Expressing Human EP1 Receptor
Inhibitory activity of the test compounds on binding of [^3H]PGE2 in HEK293 cells stably expressing human EP1 receptor was measured.
HEK293 cells, which stably express human EP1 receptor, were established by using the gene for human EP1 receptor, and then a membrane fraction was prepared therefrom. Thus-prepared membrane fraction was incubated at 30° C. for 90 minutes with a reaction solution (200 μL/well) which includes the test compound and [^3H]PGE2. Upon the completion of the reaction, the reaction solution was aspirated off under reduced pressure, and the [^3H]PGE2 bound to the membrane fraction was trapped by using Unifilter Plateg CF/C (manufactured by Packard) and the bound radioactivity was counted with a liquid scintillator.
Kd value was obtained from a Scatchard plot. Non-specific binding was obtained from the binding in the presence of an excess amount (10 μM) of non-labeled PGE2. For the measurement of an inhibitory activity of the test compound on [^3H]PGE2 binding, [^3H]PGE2 (1 nM) and various concentrations of the test compound were added. Meanwhile, for all of the reactions, the buffer as described below was used.
Buffer; 10 mM MES/NaOH (pH 6.0), 10 mM MgCl2, 1 mM EDTA, 0.1% BSA
Dissociation constant of the compounds, i.e., Ki, was obtained according to the following equation. […]

Compound	pIC50 (human EP1 receptor [1])	further results
O=C(O)c1csc(Cn2nc(-c3ccccc3)c3ccccc32)n1 [Exp.7, 2-{(3-phenyl-1H-indazol-1-yl)methyl}thiazole-4-carboxylic acid]	7.00 to 7.70	–
O=C(O)c1csc(-n2nc(-c3ccccc3)c3ccc(C(F)(F)F)cc32)n1 [Exp.77]	–	amount of micturition (SD rats): increase in the amount of micturition; micturition interval extension (SD rats; 60 minutes after administration): ≥ 30%
O=C(O)c1csc(-n2nc(-c3ccccc3)c3c2CC(C(F)(F)F)CC3)n1 (stereo not drawn) [Exp.102]	≥ 7.70	–
O=C(O)c1csc(Cn2nc(-c3ccccc3)c3ccc(C(F)(F)F)cc32)n1 [Exp.104]	≥ 7.70	–
O=C(O)c1csc(-n2nc(C3=CCCCO3)c3ccc(C(F)(F)F)cc32)n1 [Exp.105]	≥ 7.70	pIC50 (human EP1 receptor [2]): ≥ 7.00; pKi (human EP1 receptor [3]): ≥ 7.00
O=C(O)c1csc(-n2nc(-c3ccccc3)c3ccc(C(F)(F)F)nc32)n1 [Exp.106]	≥ 7.70	pIC50 (human EP1 receptor [2]): ≥ 7.00; pKi (human EP1 receptor [3]): ≥ 7.00
CC(=O)Nc1ccc2c(-c3ccccc3)nn(-c3nc(C(=O)O)cs3)c2c1 [Exp.122]	6.30 to 7.00	–
O=C(O)c1csc(-n2nc(-c3ccccc3)c3ncc(C(F)(F)F)cc32)n1 [Exp.164]	≥ 7.70	–
O=C(O)c1csc(-n2nc(-c3cccs3)c3ccccc32)n1 [Exp. 51]	7.00 to 7.70	–
N#Cc1ccc2c(-c3ccccc3)nn(-c3nc(C(=O)O)cs3)c2c1 [Exp. 118, 2-(6-Cyano-3-phenyl-1H-indazol-1-yl)thiazole-4-carboxylic acid]	7.00 to 7.70	–
Cn1cncc1C(=O)Nc1ccc2c(-c3ccccc3)nn(-c3nc(C(=O)O)cs3)c2c1 [Exp. 130]	6.30 to 7.00	–
O=C(O)c1csc(-n2nc(-c3ccccc3)c3ccc(NC(=O)C4CCCC4)cc32)n1 [Exp. 131]	6.30 to 7.00	–
CCC(C)S(=O)(=O)Nc1ccc2c(-c3ccccc3)nn(-c3nc(C(=O)O)cs3)c2c1 (stereo not drawn) [Exp. 142]	6.30 to 7.00	–
O=C(O)c1csc(-n2nc(-c3ccccc3)c3ccc(NCc4ccccc4F)cc32)n1 [Exp. 145]	6.30 to 7.00	–
O=C(O)c1csc(-n2nc(-c3ccccc3)c3ccc(NCc4cccc(F)c4)cc32)n1 [Exp. 146]	6.30 to 7.00	–
O=C(O)c1csc(-n2nc(-c3ccccc3)c3ccc(NCc4ccc(F)cc4)cc32)n1 [Exp. 147]	6.30 to 7.00	–
O=C(O)c1csc(-n2nc(-c3ccccc3)c3ccc(NCc4cccnc4)cc32)n1 [Exp. 149]	6.30 to 7.00	–
CCC(C)CNc1ccc2c(-c3ccccc3)nn(-c3nc(C(=O)O)cs3)c2c1 (stereo not drawn) [Exp. 151]	6.30 to 7.00	–
O=C(O)c1csc(-n2nc(-c3ccccc3)c3ccc(NCCc4ccccc4)cc32)n1 [Exp. 152]	7.00 to 7.70	–
O=C(O)c1csc(-n2nc(-c3ccccc3)c3ccc(Cl)cc32)n1 [Exp. 156]	≥ 7.70	–
C/C=C/c1ccc2c(-c3ccccc3)nn(-c3nc(C(=O)O)cs3)c2c1 [Exp. 159]	≥ 7.70	–
C/C=C\c1ccc2c(-c3ccccc3)nn(-c3nc(C(=O)O)cs3)c2c1 [Exp. 160]	≥ 7.70	–
CCSc1ccc2c(-c3ccccc3)nn(-c3nc(C(=O)O)cs3)c2n1 [Exp. 165]	6.30 to 7.00	–
CC(C)C(C)Sc1ccc2c(-c3ccccc3)nn(-c3nc(C(=O)O)cs3)c2n1 (stereo not drawn) [Exp. 166]	6.30 to 7.00	–
O=C(O)c1csc(-n2nc(-c3ccccc3)c3ccc(N4CCC4)nc32)n1 [Exp. 167]	7.00 to 7.70	–
O=C(O)c1csc(-n2nc(-c3ccccc3)c3ccc(Sc4cccc(O)c4)nc32)n1 [Exp. 178]	7.00 to 7.70	–

Now from value to molecule, other results behind:

pIC50 (human EP1 receptor [1])	Compound	further results
≥ 7.70	Cc1ccccc1-c1nn(-c2nc(C(=O)O)cs2)c2ccccc12 [Exp.9]	pIC50 (human EP1 receptor [2]): 6.52 to 7.00
7.00 to 7.70	O=C(O)c1csc(-n2nc(-c3cccc(O)c3)c3ccccc32)n1 [Exp.16]	pIC50 (human EP1 receptor [2]): 6.52 to 7.00
6.30 to 7.00	O=C(O)c1ccc(-n2nc(-c3ccccc3)c3ccccc32)s1 [Exp.94]	–
7.00 to 7.70	C=Cc1ccc2c(-c3ccccc3)nn(-c3nc(C(=O)OCC)cs3)c2c1 [Exp.116, Ethyl 2-(3-phenyl-6-vinyl-1H-indazol-1-yl)thiazole-4-carboxylate]	–
≥ 7.70	O=C(O)c1ccc2c(-c3ccccc3)nn(-c3nc(C(=O)O)cs3)c2c1 [Exp.119, 2-(6-Carboxy-3-phenyl-1H-indazol-1-yl)thiazole-4-carboxylic acid]	–
≥ 7.70	CN(C)c1ccc2c(-c3ccccc3)nn(-c3nc(C(=O)O)cs3)c2c1 [Exp.154]	–
6.30 to 7.00	O=C(O)c1csc(-n2nc(-c3ccccc3)c3ccc(Sc4ccc(OC(F)(F)F)cc4)nc32)n1 [Exp.177]	–
7.00 to 7.70	O=C(O)c1csc(-n2nc(-c3ccccc3)c3ccc(Sc4cccc(C(F)(F)F)c4)nc32)n1 [Exp.179]	–
6.30 to 7.00	O=C(O)c1csc(-n2nc(-c3ccccc3)c3ccc(NC(=O)C45CC6CC(CC(C6)C4)C5)cc32)n1 [Exp. 133]	–
6.30 to 7.00	O=C(O)c1csc(-n2nc(-c3ccccc3)c3ccc(NC(=O)C4CC4)cc32)n1 [Exp. 135]	–
6.30 to 7.00	CC(C)S(=O)(=O)Nc1ccc2c(-c3ccccc3)nn(-c3nc(C(=O)O)cs3)c2c1 [Exp. 141]	–
7.00 to 7.70	O=C(O)c1csc(-n2nc(-c3ccccc3)c3ccc(NCc4ccccn4)cc32)n1 [Exp. 148]	–
6.30 to 7.00	O=C(O)c1csc(-n2nc(-c3ccccc3)c3ccc(NCC4CCOC4)cc32)n1 (stereo not drawn) [Exp. 150]	–
≥ 7.70	O=C(O)c1csc(-n2nc(-c3ccccc3)c3ccc(Br)cc32)n1 [Exp. 157]	–
≥ 7.70	O=C(O)c1csc(-n2nc(-c3ccccc3)c3ccc(I)cc32)n1 [Exp. 158]	–
≥ 7.70	C=Cc1ccc2c(-c3ccccc3)nn(-c3nc(C(=O)O)cs3)c2c1 [Exp. 162]	–
7.00 to 7.70	O=C(O)c1csc(-n2nc(-c3ccccc3)c3ccc(Sc4ccccc4F)nc32)n1 [Exp. 175]	–
6.30 to 7.00	O=C(O)c1csc(-n2nc(-c3ccccc3)c3ccc(SCc4ccccc4)nc32)n1 [Exp. 176]	–
